In US8586611B2 (priority 2005, dated 2013):

What was measured:
Format in all cases: in vivo
[1] = test system: Pseudoperonospora cubensis; assay: Test A: cucumber downy mildew, spray the day before inoculation (disease rating, 100 = 100% disease control)
Text: The test compounds were first dissolved in acetone in an amount equal to 3% of the final volume and then suspended at the desired concentration (in ppm) in acetone and purified water (50/50 mix by volume) containing 250 ppm of the surfactant Trem® 014 (polyhydric alcohol esters). The resulting test suspensions were then used in tests A-E. Spraying a 200 ppm test suspension to the point of run-off on the test plants was the equivalent of a rate of 500 g/ha.
The test suspension was sprayed to the point of run-off on cucumber seedlings. The following day the seedlings were inoculated with a spore suspension of Pseudoperonospora cubensis (the causal agent of cucumber downy mildew) and incubated in a saturated atmosphere at 20° C. for 24 h, and then moved to a growth chamber at 20° C. for 6 days, after which disease ratings were made.
Results for Tests A-F are given in Table A. In the table, a rating of 100 indicates 100% disease control and a rating of 0 indicates no disease control (relative to the controls). A dash (-) indicates no test results.

Plasmopara viticola = assay: Test B: grape downy mildew, spray 24 h after inoculation (disease rating, 100 = 100% disease control)
Outline: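 Grape seedlings were inoculated with Plasmopara viticola and held 24 h saturated at 20 °C, then sprayed to run-off with compound suspension (acetone/water with 250 ppm Trem 014; 200 ppm ≈ 500 g/ha). After 5 days at 20 °C and 24 h saturation, disease was rated from 0 to 100% control versus untreated.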

Phytophthora infestans = assay: whole plant or invertebrate; settings: tomato late blight
[2] = test system: Erysiphe graminis f. sp. tritici; assay: Test E: wheat powdery mildew, spray the day before inoculation (disease rating, 100 = 100% disease control)
Outline: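 Wheat seedlings sprayed to run-off with compound suspended in acetone/water 50/50 with 250 ppm Trem 014 (200 ppm equivalent to 500 g/ha); inoculated next day with Erysiphe graminis f. sp. tritici spore dust. Kept 7 days at 20° C, then rated 0–100% disease control versus controls.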

[3] = test system: Pseudoperonospora cubensis; assay: Test F: cucumber downy mildew, DMSO/acetone/water test suspension, spray the day before inoculation (disease rating, 100 = 100% disease control)
Outline: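 Compounds in DMSO (4% of final volume) suspended in 30/70 acetone/water and sprayed on cucumber seedlings; 250 ppm corresponds to 250 g/ha. Spore inoculation the next day, 24 h saturated humidity at 20° C., then 6 days at 20° C. Rating 0–100 is disease control relative to controls.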

[4] = spray the day before inoculation, compounds without asterisk (not 40 or 10 ppm)
[5] = spray 24 h after inoculation, compounds without asterisk (not 40 or 10 ppm)
[6] = DMSO/acetone/water suspension, spray the day before inoculation, compounds without asterisk
[7] = sprayed the day before inoculation, unmarked compounds (no asterisk, not 40 or 10 ppm)
[8] = sprayed 24 h after inoculation, unmarked compounds (no asterisk, not 40 or 10 ppm)
[9] = sprayed the day before inoculation, 7 days at 20° C., unmarked compounds (no asterisk, not 40 or 10 ppm)
[10] = DMSO/acetone/water test suspension, sprayed the day before inoculation, unmarked compounds (no asterisk)

Row | Compound | Test A disease rating (100 = 100% disease control, 0 = no disease control) [1, 4] | Test B disease rating (100 = 100% disease control, 0 = no disease control) (Plasmopara viticola; [5]) | Test C disease rating (100 = 100% disease control, 0 = no disease control) (Phytophthora infestans; [4]) | Test E disease rating (100 = 100% disease control, 0 = no disease control) [2, 4] | Test F disease rating (100 = 100% disease control, 0 = no disease control) [3, 6] | Test A disease rating (100 = 100% disease control, 0 = no disease control) [1, 7] | Test B disease rating (100 = 100% disease control, 0 = no disease control) (Plasmopara viticola; [8]) | Test C disease rating (100 = 100% disease control, 0 = no disease control) (Phytophthora infestans; [7]) | Test E disease rating (100 = 100% disease control, 0 = no disease control) [2, 9] | Test F disease rating (100 = 100% disease control, 0 = no disease control) [3, 10]
1 | Cc1cccc(CC(=O)N2CCC(c3nc(C(=O)N(C)[C@H](C)c4ccccc4)cs3)CC2)c1 [compound 36] | 100% | 99% | 100% | 91% | 95% | – | – | – | – | –
2 | 2-[1-[(2,5-dimethylphenyl)acetyl]-4-piperidinyl]-N-methyl-N-[(1R)-1-phenylpropyl]-4-oxazolecarboxamide [Compound 154] | 0% | 20% | 0% | 0% | 95% | – | – | – | – | –
3 | C[C@H](c1ccccc1)N(C)C(=O)c1csc(C2CCN(C(=O)Cc3ccc(F)c(Cl)c3)CC2)n1 [compound 35] | 88% | 66% | 93% | 0% | 97% | – | – | – | – | –
4 | C[C@H](c1ccccc1)N(C)C(=O)c1csc(C2CCN(C(=O)Cc3cc(F)ccc3F)CC2)n1 [compound 44] | 97% | 57% | 98% | 21% | 0% | – | – | – | – | –
5 | 2-[1-[(3,5-diethyl-1H-pyrazol-1-yl)acetyl]-4-piperidinyl]-N-methyl-N-[(1R)-1,2,3,4-tetrahydro-1-naphthalenyl]-4-thiazolecarboxamide [Compound 209] | 100% | 76% | 98% | 0% | 99% | – | – | – | – | –
6 | Cc1ccc(C)c(CC(=O)N2CCC(c3nc(C(=O)N(C)[C@H](C)c4ccccc4)cs3)CC2)c1 [compound 47] | 100% | 100% | 100% | 96% | 100% | – | – | – | – | –
7 | O=C(NCCc1ccccc1)c1csc(C2CCN(C(=O)Cc3ccccc3Cl)CC2)n1 [compound 264] | – | – | – | – | – | 96 | 20 | 0 | 68 | 93
8 | Cc1ccccc1CC(=O)N1CCC(c2nc(C(=O)N(C)[C@H](C)c3ccccc3)cs2)CC1 [Compound 11] | 0% | 31% | 91% | 0% | 97% | – | – | – | – | –
9 | N-(2,3-dihydro-2-methyl-1H-inden-1-yl)-N-methyl-2-[1-[[5-methyl-3-(trifluoromethyl)-1H-pyrazol-1-yl]acetyl]-4-piperidinyl]-4-thiazolecarboxamide [Compound 226] | 100% | 0% | 93% | 0% | 99% | – | – | – | – | –
10 | N-methyl-2-[1-[[5-methyl-3-(trifluoromethyl)-1H-pyrazol-1-yl]acetyl]-4-piperidinyl]-N-[(1R)-1,2,3,4-tetrahydro-1-naphthalenyl]-4-oxazolecarboxamide [Compound 151] | 99% | 31% | 29% | 0% | 93% | – | – | – | – | –
11 | N-(2,3-dihydro-2,2-dimethyl-1H-inden-1-yl)-N-methyl-2-[1-[[5-methyl-3-(trifluoromethyl)-1H-pyrazol-1-yl]acetyl]-4-piperidinyl]-4-thiazolecarboxamide [Compound 222] | 100% | 99% | 99% | 21% | 100% | – | – | – | – | –
12 | O=C(NC1CCCc2ccccc21)c1csc(C2CCN(C(=O)Cc3ccccc3Cl)CC2)n1 (stereo not shown) [compound 266] | – | – | – | – | – | 100 | 6 | 57 | 42 | 86
13 | N-methyl-2-[1-[[5-methyl-3-(trifluoromethyl)-1H-pyrazol-1-yl]acetyl]-4-piperidinyl]-N-[(1R)-1-phenylpropyl]-4-thiazolecarboxamide [Compound 117] | 100% | 67% | 96% | 50% | 86% | – | – | – | – | –
14 | N-methyl-2-[1-[[5-methyl-3-(trifluoromethyl)-1H-pyrazol-1-yl]acetyl]-4-piperidinyl]-N-(1,2,3,4-tetrahydro-4-oxo-1-naphthalenyl)-4-thiazolecarboxamide [Compound 211] | 100% | 8% | 99% | 0% | 92% | – | – | – | – | –
15 | CC(C)(NC(=O)c1csc(C2CCN(C(=O)Cc3ccccc3Cl)CC2)n1)c1ccccc1 [compound 263] | – | – | – | – | – | 92 | 0 | 15 | 0 | 0
16 | C[C@H](c1ccccc1)N(C)C(=O)c1csc(C2CCN(C(=O)Nc3cccc(C(F)(F)F)c3)CC2)n1 [compound 156] | 100% | – | 62% | 21% | 100% | – | – | – | – | –
